Legend:
Format in all cases: functional, cell-based
Calu-1 = assay: SANGER: Inhibition of human Calu-1 cell growth in a cell viability assay.
NCI-H1618 = assay: cells; conditions: Homo sapiens;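 further: growth inhibition of human NCI-H1618 cells, measured by a cell viability assay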
Description: SANGER: Inhibition of human NCI-H1618 cell growth in a cell viability assay.

SK-CO-1 = assay: cells; conditions: Homo sapiens;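 further: growth inhibition of SK-CO-1 cells, determined by a viability readout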
Description: SANGER: Inhibition of human SK-CO-1 cell growth in a cell viability assay.

NCI-H838 = assay: cells; conditions: Homo sapiens;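 further: growth inhibition of human NCI-H838 cells, read out by a cell viability assay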
Description: SANGER: Inhibition of human NCI-H838 cell growth in a cell viability assay.

MDA-MB-468 = assay: cells; conditions: Homo sapiens
Description: SANGER: Inhibition of human MDA-MB-468 cell growth in a cell viability assay.

ECC12 = assay: cells; conditions: Homo sapiens
Description: SANGER: Inhibition of human ECC12 cell growth in a cell viability assay.

Caov-3 cell line = assay: cells; conditions: Homo sapiens;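 further: cell growth inhibition read out by a viability assay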
Description: SANGER: Inhibition of human Caov-3 cell growth in a cell viability assay.

Caov-4 = assay: cells; conditions: Homo sapiens
Description: SANGER: Inhibition of human Caov-4 cell growth in a cell viability assay.

HCC1143 = assay: cells; conditions: Homo sapiens;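 further: growth inhibition of human HCC1143 cells, read out with a cell viability assay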
Description: SANGER: Inhibition of human HCC1143 cell growth in a cell viability assay.

MFE-296 = assay: SANGER: Inhibition of human MFE-296 cell growth in a cell viability assay.
COLO 205 = assay: cells; conditions: Homo sapiens
Description: SANGER: Inhibition of human COLO-205 cell growth in a cell viability assay.

RT-4 = assay: SANGER: Inhibition of human RT4 cell growth in a cell viability assay.
SNG-M = assay: cells; conditions: Homo sapiens
Description: SANGER: Inhibition of human SNG-M cell growth in a cell viability assay.

PLC-PRF-5 = assay: cells; conditions: Homo sapiens;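 further: growth inhibition of human PLC-PRF-5 cells, read out with a viability assay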
Description: SANGER: Inhibition of human PLC-PRF-5 cell growth in a cell viability assay.

C-4-II = assay: SANGER: Inhibition of human C-4-II cell growth in a cell viability assay.
NCI-H2227 = assay: cells; conditions: Homo sapiens;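 further: growth inhibition of the human cell line, read out with a cell viability assay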
Description: SANGER: Inhibition of human NCI-H2227 cell growth in a cell viability assay.

NCI-H1048 = assay: cells; conditions: Homo sapiens;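 further: growth inhibition of human NCI-H1048 cells, read out with a cell viability assay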
Description: SANGER: Inhibition of human NCI-H1048 cell growth in a cell viability assay.

SW900 = assay: cells; conditions: Homo sapiens;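 further: IC50 is the concentration that inhibits SW900 cell growth, measured by a cell viability assay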
Description: SANGER: Inhibition of human SW900 cell growth in a cell viability assay.

A549 = assay: cells; conditions: Homo sapiens;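 further: growth inhibition of A549 cells, read out with a cell viability assay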
Description: SANGER: Inhibition of human A549 cell growth in a cell viability assay.

NCI-H1975 = assay: cells; conditions: Homo sapiens
Description: SANGER: Inhibition of human NCI-H1975 cell growth in a cell viability assay.

OC-314 = assay: cells; conditions: Homo sapiens
Description: SANGER: Inhibition of human OC-314 cell growth in a cell viability assay.

NBsusSR = assay: cells; conditions: Homo sapiens;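 further: growth inhibition of the human cell line, read out with a cell viability assay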
Description: SANGER: Inhibition of human NBsusSR cell growth in a cell viability assay.

CFPAC-1 = assay: cells; conditions: Homo sapiens;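 further: cell viability readout used to gauge suppression of CFPAC-1 cell proliferation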
Description: SANGER: Inhibition of human CFPAC-1 cell growth in a cell viability assay.

SW 1116 = assay: cells; conditions: Homo sapiens;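 further: growth inhibition of SW1116 cells, read out with a cell viability assay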
Description: SANGER: Inhibition of human SW1116 cell growth in a cell viability assay.

KNS-62 = assay: cells; conditions: Homo sapiens;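 further: inhibition of cell growth, read out with a cell viability assay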
Description: SANGER: Inhibition of human KNS-62 cell growth in a cell viability assay.

NCI-H2291 = assay: cells; conditions: Homo sapiens
Description: SANGER: Inhibition of human NCI-H2291 cell growth in a cell viability assay.

LU-135 = assay: cells; conditions: Homo sapiens
Description: SANGER: Inhibition of human LU-135 cell growth in a cell viability assay.

ZR-75-30 = assay: cells; conditions: Homo sapiens;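 further: growth inhibition of ZR-75-30 cells, measured with a cell viability readout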
Description: SANGER: Inhibition of human ZR-75-30 cell growth in a cell viability assay.

BT-549 = assay: cells; conditions: Homo sapiens
Description: SANGER: Inhibition of human BT-549 cell growth in a cell viability assay.

YH-13 = assay: cells; conditions: Homo sapiens;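 further: cell viability readout of growth suppression in the human YH-13 cell line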
Description: SANGER: Inhibition of human YH-13 cell growth in a cell viability assay.

NCI-H2029 = assay: cells; conditions: Homo sapiens;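 further: Read-out is a viability assay on the cultured cells, and IC50 is the concentration that suppresses cell growth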
Description: SANGER: Inhibition of human NCI-H2029 cell growth in a cell viability assay.

ECC10 = assay: cells; conditions: Homo sapiens;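 further: growth inhibition of ECC10 cells, read out by a cell viability assay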
Description: SANGER: Inhibition of human ECC10 cell growth in a cell viability assay.

CRO-AP2 = assay: SANGER: Inhibition of human CRO-AP2 cell growth in a cell viability assay.
NCI-H2107 = assay: SANGER: Inhibition of human NCI-H2107 cell growth in a cell viability assay.
SKM-1 = assay: SANGER: Inhibition of human SKM-1 cell growth in a cell viability assay.; conditions: Homo sapiens, SKM-1
KP-N-RT-BM-1 = assay: SANGER: Inhibition of human KP-N-RT-BM-1 cell growth in a cell viability assay.
CP67-MEL = assay: SANGER: Inhibition of human CP67-MEL cell growth in a cell viability assay.

Row | Structure (SMILES) | IC50 (ECC12) [nM] | IC50 (NCI-H2227) [nM] | IC50 (NCI-H1048) [nM] | IC50 (SW900) [nM] | IC50 (A549) [nM] | IC50 (NCI-H1975) [nM] | IC50 (OC-314) [nM] | IC50 (NBsusSR) [nM] | IC50 (CFPAC-1) [nM] | IC50 (SW 1116) [nM] | IC50 (KNS-62) [nM] | IC50 (NCI-H2291) [nM] | IC50 (LU-135) [nM] | IC50 (ZR-75-30) [nM] | IC50 (BT-549) [nM] | IC50 (YH-13) [nM] | IC50 (NCI-H2029) [nM] | IC50 (ECC10) [nM] | further results
1 | COC(=O)[C@H](CCSC)NC(=O)c1ccc(NC[C@@H](N)CS)cc1-c1ccccc1 | > 1020 | > 1020 |  |  |  |  |  |  |  |  |  |  |  |  |  |  |  |  | IC50 (Calu-1): > 1020 nM; IC50 (NCI-H1618): > 1020 nM; IC50 (SK-CO-1): > 1020 nM; IC50 (NCI-H838): > 1020 nM; IC50 (MDA-MB-468): > 1020 nM; IC50 (Caov-3 cell line): > 1020 nM; IC50 (Caov-4): > 1020 nM; IC50 (HCC1143): > 1020 nM; IC50 (MFE-296): > 1020 nM; IC50 (COLO 205): > 1020 nM; IC50 (RT-4): > 1020 nM; IC50 (SNG-M): > 1020 nM; IC50 (PLC-PRF-5): > 1020 nM; IC50 (C-4-II): > 1020 nM
2 | CN(NC(=O)CC(=O)NN(C)C(=S)c1ccccc1)C(=S)c1ccccc1 [ELESCLOMOL] |  |  | 18.4 | 62.1 | 19.6 | > 200 | 33.5 | 3.13 | > 200 | > 200 | 9.62 | > 200 | > 200 | 47.9 | 15.8 | 24.1 | > 200 | > 200 | 
3 | Nc1ccccc1NC(=O)c1ccc(CNC(=O)OCc2cccnc2)cc1 [ENTINOSTAT] | 701 | 3020 |  |  |  |  |  |  |  |  |  |  |  |  |  |  |  |  | IC50 (CRO-AP2): 169 nM; IC50 (NCI-H2107): 1360 nM; IC50 (SKM-1): > 5 µM
4 | Cc1ccc(NC(=O)c2ccc(CN3CCN(C)CC3)cc2)cc1Nc1nccc(-c2cccnc2)n1 [IMATINIB] |  |  |  |  |  |  |  |  |  |  |  |  |  |  |  |  |  |  | IC50 (KP-N-RT-BM-1): > 2000 nM; IC50 (CRO-AP2): > 2000 nM; IC50 (NCI-H2107): > 2000 nM; IC50 (SKM-1): > 2 µM; IC50 (CP67-MEL): > 2000 nM
5 | Cc1ccc(C(=O)Nc2ccc(CN3CCN(C)CC3)c(C(F)(F)F)c2)cc1C#Cc1cnc2cccnn12 [PONATINIB] | > 512 | > 512 |  |  |  |  |  |  |  |  |  |  |  |  |  |  |  |  | IC50 (Calu-1): > 512 nM; IC50 (NCI-H1618): > 512 nM; IC50 (SK-CO-1): > 512 nM; IC50 (NCI-H838): > 512 nM; IC50 (MDA-MB-468): > 512 nM; IC50 (Caov-3 cell line): > 512 nM; IC50 (Caov-4): > 512 nM; IC50 (HCC1143): > 512 nM; IC50 (MFE-296): 118 nM; IC50 (COLO 205): > 512 nM; IC50 (RT-4): 451 nM; IC50 (SNG-M): > 512 nM; IC50 (PLC-PRF-5): > 512 nM; IC50 (C-4-II): > 512 nM
6 | CC1=C(/C=C/C(C)=C/C=C/C(C)=C/C(=O)O)C(C)(C)CCC1 [TRETINOIN] |  |  | > 10000 | > 10000 | > 10000 | > 10000 | > 10000 | 1450 | > 10000 | > 10000 | > 10000 | > 10000 | > 10000 | > 10000 | > 10000 | > 10000 | > 10000 | 2380 | 
7 | NC(=O)c1ccc(N(C(N)=O)c2c(F)cccc2F)nc1-c1ccc(F)cc1F [VX-702] |  |  | > 2000 | > 2000 | > 2000 | > 2000 | > 2000 | > 2000 | > 2000 | > 2000 | > 2000 | > 2000 | > 2000 | > 2000 | > 2000 | > 2000 | > 2000 | 654 | 
